The results in this text go back to patent US20190359939A1, “NEW USE” (DIAMYD MEDICAL AB, priority 2015, published 2019).

Entries after “also recorded” stand apart in the source; their conditions may differ.

Experiment [1] concerns dendritic cells obtained from mouse bone marrow. Particulars: compared to LPS or mouse serum albumin treatment.
Procedure: Dendritic cells obtained from mouse bone marrow are used. In order to secure a large amount of the number of the dendritic cells, Inaba's culture method (Inaba et al., J. Exp. Med. 175:1157, 1992), which is a representative method of culturing a dendritic cell, is modified and applied to the dendritic cells. […] A tibia and a femur of a mouse aged 6 to 11 weeks are extracted, and a RPMI1640 medium is added to bone marrow of the tibia and the femur to obtain bone marrow cells therefrom. Then, hypotonic ammonium chloride-potassium (ACK) lysing buffer is used for the lysis of red blood cells. The bone marrow cells are cultured in an RPMI1640 medium containing about 10 to 20 ng/ml recombinant mouse GMCSF, about 5 to 10 ng/ml recombinant mouse IL4, 5 to 10% heat inactivated fetal bovine serum, L-glutamine, 25 mM of HEPES, penicillin, and streptomycin under conditions of 5% CO2 and a temperature of 37° C., thereby inducing differentiation into dendritic cells. The medium is replaced every 2 days with a medium containing the recombinant cytokines. After 2 and 4 days of the culture, granulocytes and lymphocytes that are floating on the culture dish are removed. After 6 days of the culture, dendritic cells that are differentiated from precursor cells attached on the bottom of the culture dish and that have characteristic protrusions in suspension are used in the experiments. […]
In experiment [2] the test system is CD11c+ DCs (IL-12 production). Kind of experiment: Intracellular IL-12 expression of treated dendritic cells by FACS. The class given is cell-based, NOD mouse. Particulars: with alhydrogel adsorbed rhGAD65, activated with MPLA, FIG. 2B. An excerpt:
FIG. 2: IL-12 production of treated dendritic cells. A: FACS plots showing the intracellular IL-12 expression of CD11c+ monocytes as percent IL-12+ cells of parent population; from left to right, untreated (iDCs), matured by MPLA (mDCs), tolerogenic by Dex and VD3 and tolerogenic by GABA. B: Column diagram of percent of parent numbers of the same groups.
In FIG. 2A, FACS plots of the intracellular expression of IL-12 of untreated CD11c+ DCs (iDCs), proinflammatory matured DCs (mDCs), DCs treated with Dex, VD3 and alhydrogel adsorbed rhGAD65 activated by MPLA, and DCs treated with GABA and alhydrogel adsorbed rhGAD65 activated by MPLA are shown. IL-12 is a proinflammatory cytokine, and low production is indicative of tolerogenic DCs. The IL-12+ cells are shown in the upper left quadrant of the plots.
Tolerogenically treated cells on the other hand generally have very low expression of IL-12. Both cells treated with Dex and VD3 and those treated with GABA, even though they have been activated with MPLA, show very low numbers of IL-12+ cells.
Mouse bone marrow-derived dendritic cells (BMDCs) were generated from bone marrow cells (femura) of 8-week-old NOD mouse females in complete RPMI 1640 medium (Lonza, Basel Switzerland) in the presence of GM-CSF (20 ng/ml) and IL-4 (4.5 ng/ml, PeproTech) for 6 days. […]
On the technique in general: Flow cytometry measures light scatter and fluorescence of single cells or particles in a stream.

For experiment [3], the system named is DCs from murine bone marrow (CD11c+ monocytes). Kind of experiment: Dendritic cell surface receptor expression (CD40, CD80, CD86, MHC Class II) by flow cytometry after cultivation with additives. The experiment is classed as cell-based, NOD mouse. An excerpt:
FIG. 1: Dendritic cell (CD11c+ monocytes) surface receptor expression after cultivation with various additives. Expression as indicated by the MFI of CD11+ monocyte cells stained with fluorescent antibodies towards CD40, CD80, CD86 and MHC Class II. A: comparing cells untreated (iDCs), matured with MPLA (mDCs), and cells treated with GABA, GABA and rhGAD65, and GABA and rhGAD65 matured with MPLA. B: comparing cells untreated (iDCs), matured with MPLA (mDCs), and cells treated with GABA, GABA and alhydrogel adsobed rhGAD65, and GABA and alhydrogel adsorbed rhGAD65 matured with MPLA. C: comparing cells untreated (iDCs), matured with MPLA (mDCs), and cells treated with GABA and rhGAD65 matured with MPLA, GABA and alhydrogel adsorbed rhGAD65 matured with MPLA, and cells treated with Dex and VD3 and matured with MPLA.
FIG. 1 (A, B and C) show the surface expression pattern of CD80, CD86, CD40 and MCH Class II proteins on murine DCs treated according to different protocols.
Mouse bone marrow-derived dendritic cells (BMDCs) were generated from bone marrow cells (femura) of 8-week-old NOD mouse females in complete RPMI 1640 medium (Lonza, Basel Switzerland) in the presence of GM-CSF (20 ng/ml) and IL-4 (4.5 ng/ml, PeproTech) for 6 days. Fresh medium was added on day 3 and comparator tDCs were induced by adding dexamethasone (1 μM) and vitamin D3 (0.5 ng/ml) on day 6, while mDCs were generated without tolerogenic factors, and iDCs were untreated for the entire cultivation period. Similarly for GABA testing, GABA was added on day 6 in at a concentration of 100 μM. Exposure to antigen was achieved by adding GAD65 (either pure GAD65 protein or alum adsorbed GAD65) to the cultivation mixture on day 6 along with tolerizing agents at a concentration of 5 μg/ml. […] Cells were harvested on day 8.
Mouse DCs were characterized by flowcytometry using following mAbs purchased from eBioscience; anti-CD11c-APC (clone N418), anti-CD40-PerCP-eFluor710 (clone 1C10), anti-CD80-FITC (clone 16-10A1), anti-CD86-PE (clone GL1), and anti-MHC II (I-A/I-E) (clone MS/114.15.2). Cells were stained with fluorochrome-conjugated antibodies against surface molecules and data were acquired by LSR II flow cytometers (BD Biosciences) and analyzed using FlowJo software (Tree Star).

On to `NCCCC(=O)O` [GABA, gamma-aminobutyric acid], for which the “amount of maturation markers on the surface of the dendritic cells (CD40, CD80, CD86, MHC class II)” value in experiment [1] is given as “decreased”. The “numbers of IL-12+ cells (percentage of CD11c+ monocytes that are IL-12 positive)” value in experiment [2] is given as “very low”. Moreover, the “surface protein expression profile (CD80, CD86, CD40, MHC Class II)” value in experiment [3] (100 μM GABA alone, FIG. 1A) was “more similar to iDCs and indicative of tDCs”; in experiment [3] (GABA plus antigen GAD65 (rhGAD65), no MPLA) it was “remains the same; also recorded: remains indicative of tDCs”; in experiment [3] (GABA plus rhGAD65, then MPLA), “increases slightly but is still much lower than mDCs; also recorded: still remains almost the same”. In experiment [3] (100 μM GABA and stabilization with MPLA, FIG. 1C), the “tolerogenic expression pattern compared to Dexamethasone, Vitamin D and MPLA protocol” value is reported as “comparable or better”. In experiment [3] (GABA plus alhydrogel adsorbed rhGAD65, then MPLA, FIG. 1B), the surface molecule expression result is given as “keep a low surface molecule expression”. Moreover, the “CD80 expression compared to Dex and VD3 treated cells” value in experiment [3] (activated by MPLA, FIG. 1C) is “even lower”.
